The source of these data is US9284283B2, “Macrocyclic compounds for modulating IL-17” (ENSEMBLE THERAPEUTICS CORPORATION, priority 2012, dated 2016).

Assay [1] has as its system IL-17A induced secretion of IL-6 in primary human RASF cells. In words: Inhibition of IL17A induced secretion of IL6 in human rheumatoid arthritis synovial fibroblast (RASF) cells. The format is cell-based. Conditions: Homo sapiens, Fibroblast. Summed up: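 Primary RASF cells (passage 2-8) stimulated 20 h at 37 °C with rhIL-17A (30 ng/mL) pre-incubated 1 h with compound (final 0.03-25 μM, 0.25% DMSO). Supernatant IL-6 measured by ELISA, normalized to WST1 viability; triplicates.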

In assay [2] the target is T1, recombinant human IL17a (binding to its receptor IL17R) (Homo sapiens, UniProt Q16552).
T1 construct: purchased R&D Systems 317-ILB (IL17a); 177-IR (IL17R/Fc)
T1 sequence (Q16552 20-155 limits assumed): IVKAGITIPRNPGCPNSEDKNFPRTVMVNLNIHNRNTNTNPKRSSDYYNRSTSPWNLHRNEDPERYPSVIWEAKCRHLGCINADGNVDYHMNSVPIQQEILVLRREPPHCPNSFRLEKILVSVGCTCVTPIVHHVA
In words: IL-17 competition ELISA I (IL17a coated, IL17R/Fc binding). In short, it runs like this:
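Plates coated with 20 nM recombinant human IL17a received compound dilutions and 12 nM IL17R/Fc (final) for 30 min at room temperature. Bound receptor was detected with HRP anti-human Fc and TMB, read at 450 nm. IC50 came from a 4-parameter logistic fit between no-competitor and blank controls.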
(In an ELISA, binding on a coated surface is turned into a signal by an enzyme label.)

Assay [3] has as its target T2, biotinylated human IL-17 (binding to IL17R/Fc) (Homo sapiens, UniProt Q16552).
T2 construct: purchased R&D Systems 317-ILB (IL-17, biotinylated); 177-IR (IL17R/Fc)
T2 sequence (Q16552 20-155 limits assumed): T1 sequence (Q16552 20-155 limits assumed)
Nature of the assay: IL-17 competition ELISA II (captured IL17R/Fc, biotinylated IL-17). In short, it runs like this: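 Competition read-out: absorbance at 450 nm after streptavidin-HRP/TMB detection, fitted to a 4-parameter logistic model bounded by no-competitor and blank wells to give IC50. Compound was serially diluted 5-fold from 1 μM alongside 20 nM (stock) biotinylated IL-17 on IL17R/Fc (10 nM) captured via goat anti-human IgG, 30 min at room temperature.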

Some results are limits rather than exact numbers.

Broadly, the IC50 is the point on the concentration scale where inhibition reaches its midpoint. In the case of `COC(=O)[C@@H]1CCCCNC(=O)CCCNC(=O)[C@@H](Cc2ccc(NC(=O)[C@H](Cc3ccccc3F)NC(=O)Cc3ccccc3)cc2)NC(=O)CC2(CCCC2)CC(=O)N1` [Compound 106], the figures for the IC50 in assay [1] and in assay [2] were > 10000 nM and 100 to 1000 nM, respectively.
For `COC(=O)[C@@H]1CCCCNC(=O)CNC(=O)[C@@H](Cc2ccc(NC(=O)[C@H](Cc3ccccc3Cl)NC(=O)Cc3ccccc3)cc2)NC(=O)CC2(CCCC2)CC(=O)N1` [Compound 143], the IC50 in assay [1] was 1000 to 10000 nM; in assay [2], < 100 nM.
The matching figures for `COC(=O)[C@@H]1CCCCNC(=O)CNC(=O)[C@@H](Cc2ccc(NC(=O)[C@H](Cc3ccccc3Cl)NC(=O)c3ccccc3)cc2)NC(=O)CC2(CCCC2)CC(=O)N1` [Compound 144]: 1000 to 10000 nM and < 100 nM.
The matching figures for `O=C1CNC(=O)[C@@H](Cc2ccc(NC(=O)[C@H](Cc3ccccc3Cl)NC(=O)Cc3ccccc3)cc2)NC(=O)CC2(CCCC2)CC(=O)NCCCCCN1` [Compound 159]: 1000 to 10000 nM and < 100 nM.
In the case of `O=C1CNC(=O)[C@@H](Cc2ccc(NC(=O)[C@H](Cc3ccc(Cl)cc3Cl)NC(=O)Cc3ccccc3)cc2)NC(=O)CC2(CCCC2)CC(=O)NCCCCCN1` [Compound 185], the IC50 in assay [1] is 1000 to 10000 nM; in assay [2], < 100 nM.
As to `O=C1CNC(=O)[C@@H](Cc2ccc(NC(=O)[C@@H](NC(=O)Cc3ccccc3)C3CCCCC3)cc2)NC(=O)CC2(CCCC2)CC(=O)NCCCCCN1` [Compound 186], the results for the IC50 in assay [3], in assay [1] and in assay [2] were < 100 nM, 1000 to 10000 nM and < 100 nM, respectively.
With `O=C1CNC(=O)[C@@H](Cc2ccc(NC(=O)[C@H](Cc3ccc(Cl)cc3Cl)NC(=O)Cc3ccc(O)cc3)cc2)NC(=O)CC2(CCCC2)CC(=O)NCCCCCN1` [Compound 191], the IC50 in assay [1] is 1000 to 10000 nM; in assay [2] it was < 100 nM.
For the compound `O=C1CNC(=O)[C@@H](Cc2ccc(NC(=O)[C@H](Cc3ccccc3Cl)NC(=O)c3cccnc3)cc2)NC(=O)CC2(CCCC2)CC(=O)NCCCCCN1` [Compound 194], the values for the IC50 in assay [3], in assay [1] and in assay [2] were < 100 nM, 100 to 1000 nM and < 100 nM, respectively.
With `O=C1CNC(=O)[C@@H](Cc2ccc(NC(=O)[C@H](Cc3ccccc3Cl)NC(=O)Cc3ccccn3)cc2)NC(=O)CC2(CCCC2)CC(=O)NCCCCCN1` [Compound 226], the IC50 was < 100 nM in assay [3], 1000 to 10000 nM in assay [1] and < 100 nM in assay [2].
